Test [1] has as its target T1, mu opioid receptor (MOR) (Homo sapiens, UniProt P35372). Briefly: PathHunter β-arrestin recruitment assay, PAM mode with EC20 endomorphin-1. In kind it is cell-based. A digest of the protocol: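 Enzyme fragment complementation read-out: β-gal ED fragment fused to receptor, EA fused to β-arrestin, recruitment restoring β-gal activity detected by chemiluminescence. EC50 and percent maximal response derived for each compound.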
(In general: Activated receptors often draw arrestin, which recruitment assays turn into a signal.)

For test [2], the target named is T1, mu opioid receptor (MOR). Briefly: Hit Hunter cAMP signaling assay (adenylyl cyclase inhibition), PAM mode with EC20 endomorphin-1. In kind it is cell-based.
For test [3], the target named is T2, mu opioid receptor subtype OPRM1 (Homo sapiens, UniProt P35372). Briefly: β-arrestin recruitment assay, antagonist format. The settings on record: Table 18. In kind it is cell-based. The protocol:
Beta-Arrestin Pathway: The PathHunter β-arrestin assay monitors the activation of a GPCR in a homogenous, non-imaging assay format using a technology developed by DiscoveRx called Enzyme Fragment Complementation (EFC) with beta-galactosidase (β-Gal) as the functional reporter. […] EA is fused to β-Arrestin and ED is fused to the GPCR of interest. When the GPCR is activated and β-arrestin is recruited to the receptor, ED and EA complementation occurs, restoring β-gal activity, which is measured using chemiluminescent PathHunter Detection Reagents.
Similar results were obtained when agonist and antagonist activity were assayed using cAMP signaling as the readout.

In test [4] the target is T3, MOR (Homo sapiens, UniProt P35372). Briefly: cell-based. The settings on record: EC20 morphine agonism of MOR.
T3 sequence (P35372 whole entry): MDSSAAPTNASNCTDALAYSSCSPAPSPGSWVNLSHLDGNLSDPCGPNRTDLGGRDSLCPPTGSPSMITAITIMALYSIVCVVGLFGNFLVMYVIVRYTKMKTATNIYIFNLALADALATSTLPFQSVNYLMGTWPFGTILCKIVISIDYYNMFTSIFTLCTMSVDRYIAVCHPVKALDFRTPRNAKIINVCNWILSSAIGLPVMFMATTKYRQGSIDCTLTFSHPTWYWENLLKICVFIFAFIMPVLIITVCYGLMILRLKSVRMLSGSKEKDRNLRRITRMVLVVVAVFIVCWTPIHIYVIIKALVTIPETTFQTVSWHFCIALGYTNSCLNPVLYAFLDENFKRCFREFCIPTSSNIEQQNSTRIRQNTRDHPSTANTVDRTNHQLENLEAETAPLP
In test [5] the target is T3, MOR. The test is described as follows: cell-based. The settings on record: EC20 morphine agonism of MOR. This is another data set of the same source.
The target in test [6] is T3, MOR. Briefly: cell-based. The settings on record: EC20 Oxycodone agonism of MOR.
The target of test [7] is T3, MOR. The test is described as follows: cell-based. The settings on record: EC20 Oxycodone agonism of MOR. The source holds these as a separate data set.
Test [8] deals with T3, MOR. In kind it is cell-based. The settings on record: β-arrestin; EC20 EM2 agonism of MOR.
Test [9] deals with T3, MOR. In kind it is cell-based. The settings on record: cAMP; EC20 EM2 agonism of MOR.
Test [10] deals with T3, MOR. In kind it is cell-based.
Test [11] has as its target T3, MOR. In kind it is cell-based. This is another data set of the same source.
For test [12], the target named is T2, mu opioid receptor subtype OPRM1. Briefly: cell-based.
Test [13] has the same target.
The target of the next test is OPRM1 receptor (Homo sapiens, UniProt P35372).
OPRM1 receptor, sequence (P35372 whole entry): as above

The values that follow come from US11071731B2, “Allosteric modulators of the mu opioid receptor” (Chiromics, LLC, priority 2017, dated 2021).

A word on the IC50: it is the midpoint of a concentration-inhibition curve. Higher therefore signals lower potency.

SMILES strings stand for the structures. Where two headings read alike, the source gives them in different places.

T1 sequence (P35372 whole entry, the tested form may be a part): as the sequence (P35372 whole entry) above
T2 sequence (P35372 whole entry, the tested form may be a part): as the sequence (P35372 whole entry) above

On to `COc1ccc(C2CCCCN2S(=O)(=O)c2ccc(Cl)cc2)cc1Br` (single isomer, unassigned) [compound 6], for which the “allosteric activity for β-arrestin recruitment” value at mu opioid receptor (MOR) [1] (EC20 endomorphin-1 concentration of 4.5 nM) is on record as “moderate positive allosteric effect”. For the same compound, the “β-arr Max. Resp.” value at mu opioid receptor (MOR) [1] (maximal response for β-arrestin recruitment) is on record as “F (F represents a maximal response of > 60%)”. Further, the EC50 at mu opioid receptor (MOR) [1] (β-arrestin recruitment, read-out: β-arr. EC50) is 700 to 2100 nM; on mu opioid receptor (MOR) [1] (β-arrestin, EC20 EM-1 agonism of MOR, read-out: RC50 (the source's name)), 2520 nM; at mu opioid receptor (MOR) [2] (RC50, cAMP, EC20 EM-1 agonism of MOR), 500 nM; on mu opioid receptor (MOR) [2] (cAMP EC50, adenylyl cyclase inhibition), less than 700 nM; on MOR [4] (RC50, β-arrestin), 8250 nM; at MOR [5] (RC50, cAMP), 2960 nM. Moreover, the EC50 on MOR [6] (RC50, β-arrestin) was 4830 nM; at MOR [7] (RC50, cAMP) it was 320 nM; in test [12] it was greater than 25000 nM. The “Max. Response” value was 173 at mu opioid receptor (MOR) [1] (β-arrestin, EC20 EM-1 agonism of MOR); 93 on mu opioid receptor (MOR) [2] (cAMP, EC20 EM-1 agonism of MOR); 421 at MOR [4] (β-arrestin); 93 at MOR [5] (cAMP); 384 on MOR [6] (β-arrestin); 90 at MOR [7] (cAMP). Further, the entries for the “Max. Response” value at MOR [8] and on MOR [9] were 117 and 91, respectively. The “allosteric activity for cAMP signaling” value at mu opioid receptor (MOR) [2] (EC20 endomorphin-1 concentration of 0.45 nM) is on record as “moderate positive allosteric effect”. Further, the “cAMP Max. Resp.” value on mu opioid receptor (MOR) [2] (maximal response for adenylyl cyclase inhibition) was “F (F represents a maximal response of > 60%)”. The half-maximal inhibitory concentration (IC50) in test [3] is greater than 25 µM. Besides, the figures for the “factor of increase of the affinity (α) of oxycodone” value on MOR [10] (β-arrestin) and at MOR [11] (cAMP) were 2 and 4, respectively. Further, the “factor of increase of the efficacy (β) of oxycodone” value at MOR [10] (β-arrestin) worked out at 80; at MOR [11] (cAMP), 4. In addition, the “shift in the potency of oxycodone” value at MOR [10] (β-arrestin recruitment) is “concentration-dependent and saturable leftward shifts”; on MOR [11] (adenylyl cyclase inhibition) it was “concentration-dependent and saturable leftward shifts”. Further, on MOR [11] (cAMP signal, oxycodone), the “effective potency for PAM effect” value came out at 234 nM.
As for `COc1ccc2c3c1O[C@H]1C(=O)CC[C@@]4(O)[C@@H](C2)N(C)CC[C@]314` [oxycodone], the “% Max. Resp., β-arrestin” value in [13] is on record as 102.03%. The “% Max. Resp., cAMP” value at OPRM1 receptor is 100.62%.
